From patent US4517181A, “Mammalian PGRF” (The Salk Institute for Biological Studies, priority 1982, dated 1985)

How the values were obtained:
[1] = system: pituitary growth hormone release (serum ir-GH); experiment: in vivo release of pituitary growth hormone after one single intravenous injection in normal rats; parameters: species or system rat; conditions: for serum ir-GH: rat
Source text: In addition to the in vitro tests for secretion of growth hormone, in vivo experiments were also run by injecting the synthetic peptide into normal male rats about 200 g. body weight, anesthetized with pentobarbital.

[2] = system: cells of rat pituitary glands; experiment: in vitro GH release, rat pituitary cell monolayer culture bioassay (ir GH by radioimmunoassay); type: cell-based; conditions: for GH secretion in vitro % of controls: Table I
Description: To determine the effectiveness of the peptides to promote the release of growth hormone, in vitro assays are carried out using synthetic PGRF (1-40) of Example II in side-by-side comparison with equimolar concentrations of the extracted and purified native PGRF (1-40) and of a GRF Reference Standard having a known effectiveness to promote the release of growth hormone from pituitary cells. The GRF Reference standard is described and defined in Brazeau, et al., Endocrinology, Vol. 110, A538(1982) and is an amount of a preparation of rat hypothalamic origin that produces a half-maximal response in terms of GH release in a pituitary cell monolayer bioassay. Cultures are used which include cells of rat pituitary glands removed some four to five days previously. Both cultures of a defined standard medium and cultures which are considered optimal for the secretion of growth hormone are used for the comparative testing, in the general manner described in Brazeau, et al. Regulatory Peptides, 1, 255, 1981. Incubation with the substance to be tested is carried out for 3 to 4 hours, and aliquots of the culture medium are removed and processed to measure their contents in inmunoreactive GH(ir GH) by a well-characterized radioimmunoassay.
The in vitro assays described in Example VII are repeated using Native PGRF(1-40) and Native PGRF(1-44) and the results are set forth in following Table III: […]

CC[C@H](C)[C@H](NC(=O)[C@H](C)NC(=O)[C@H](CC(=O)O)NC(=O)[C@H](C)NC(=O)[C@@H](N)Cc1ccc(O)cc1)C(=O)N[C@@H](Cc1ccccc1)C(=O)N[C@H](C(=O)N[C@@H](CC(N)=O)C(=O)N[C@@H](CO)C(=O)N[C@@H](Cc1ccc(O)cc1)C(=O)N[C@@H](CCCNC(=N)N)C(=O)N[C@@H](CCCCN)C(=O)N[C@H](C(=O)N[C@@H](CC(C)C)C(=O)NCC(=O)N[C@@H](CCC(N)=O)C(=O)N[C@@H](CC(C)C)C(=O)N[C@@H](CO)C(=O)N[C@@H](C)C(=O)N[C@@H](CCCNC(=N)N)C(=O)N[C@@H](CCCCN)C(=O)N[C@@H](CC(C)C)C(=O)N[C@@H](CC(C)C)C(=O)N[C@@H](CCC(N)=O)C(=O)N[C@@H](CC(=O)O)C(=O)N[C@H](C(=O)N[C@@H](CCSC)C(=O)N[C@@H](CO)C(=O)N[C@@H](CCCNC(=N)N)C(=O)N[C@@H](CCC(N)=O)C(=O)N[C@@H](CCC(N)=O)C(=O)NCC(=O)N[C@@H](CCC(=O)O)C(=O)N[C@@H](CO)C(=O)N[C@@H](CC(N)=O)C(=O)N[C@@H](CCC(N)=O)C(=O)N[C@@H](CCC(=O)O)C(=O)N[C@@H](CCCNC(=N)N)C(=O)NCC(=O)N[C@@H](C)C(=O)O)[C@@H](C)CC)C(C)C)[C@@H](C)O [Synthetic PGRF (1-40), PGRF (1-40)]
serum ir-GH ([1]; 0.01 μg i.v., +5 min): 284 ± 20 nanograms/ml
serum ir-GH ([1]; 0.01 μg i.v., +10 min): 238 ± 51 nanograms/ml
serum ir-GH ([1]; 0.01 μg i.v., +15 min): 201 ± 47 nanograms/ml
serum ir-GH ([1]; 0.01 μg i.v., +30 min): 261 ± 50 nanograms/ml
serum ir-GH ([1]; 0.01 μg i.v., +60 min): 299 ± 25 nanograms/ml
serum ir-GH ([1]; 0.01 μg i.v., -1 min (before injection)): 173 ± 23 nanograms/ml
serum ir-GH ([1]; 0.1 μg i.v., +5 min): 694 ± 246 nanograms/ml
serum ir-GH ([1]; 0.1 μg i.v., +10 min): 582 ± 290 nanograms/ml
serum ir-GH ([1]; 0.1 μg i.v., +15 min): 758 ± 562 nanograms/ml
serum ir-GH ([1]; 0.1 μg i.v., +30 min): 280 ± 70 nanograms/ml
serum ir-GH ([1]; 0.1 μg i.v., +60 min): 424 ± 129 nanograms/ml
serum ir-GH ([1]; 0.1 μg i.v., -1 min (before injection)): 276 ± 126 nanograms/ml
serum ir-GH ([1]; 1.0 μg i.v., +5 min): 4551 ± 1825 nanograms/ml
serum ir-GH ([1]; 1.0 μg i.v., +10 min): 1748 ± 564 nanograms/ml
serum ir-GH ([1]; 1.0 μg i.v., +15 min): 730 ± 158 nanograms/ml
serum ir-GH ([1]; 1.0 μg i.v., +30 min): 234 ± 53 nanograms/ml
serum ir-GH ([1]; 1.0 μg i.v., +60 min): 267 ± 129 nanograms/ml
serum ir-GH ([1]; 1.0 μg i.v., -1 min (before injection)): 142 ± 24 nanograms/ml
serum ir-GH ([1]; 10.0 μg i.v., +5 min): 7077 ± 1943 nanograms/ml
serum ir-GH ([1]; 10.0 μg i.v., +10 min): 4676 ± 585 nanograms/ml
serum ir-GH ([1]; 10.0 μg i.v., +15 min): 2464 ± 378 nanograms/ml
serum ir-GH ([1]; 10.0 μg i.v., +30 min): 616 ± 112 nanograms/ml
serum ir-GH ([1]; 10.0 μg i.v., +60 min): 223 ± 26 nanograms/ml
serum ir-GH ([1]; 10.0 μg i.v., -1 min (before injection)): 234 ± 76 nanograms/ml
ED50 ([2]; GH release in vitro, Example VII): about 113 picograms
GH secretion in vitro % of controls ([2]; 10 fmoles): 269 ± 20 % of controls
GH secretion in vitro % of controls ([2]; 100 fmoles): 701 ± 6 % of controls
GH secretion in vitro % of controls ([2]; 1000 fmoles): 990 ± 42 % of controls
biological activity compared with the native peptide ([2]; equimolar ratios, Example VII): has the full biological activity of the native peptide

CC[C@H](C)[C@H](NC(=O)[C@H](C)NC(=O)[C@H](CC(=O)O)NC(=O)[C@H](C)NC(=O)[C@@H](N)Cc1ccc(O)cc1)C(=O)N[C@@H](Cc1ccccc1)C(=O)N[C@H](C(=O)N[C@@H](CC(N)=O)C(=O)N[C@@H](CO)C(=O)N[C@@H](Cc1ccc(O)cc1)C(=O)N[C@@H](CCCNC(=N)N)C(=O)N[C@@H](CCCCN)C(=O)N[C@H](C(=O)N[C@@H](CC(C)C)C(=O)NCC(=O)N[C@@H](CCC(N)=O)C(=O)N[C@@H](CC(C)C)C(=O)N[C@@H](CO)C(=O)N[C@@H](C)C(=O)N[C@@H](CCCNC(=N)N)C(=O)N[C@@H](CCCCN)C(=O)N[C@@H](CC(C)C)C(=O)N[C@@H](CC(C)C)C(=O)N[C@@H](CCC(N)=O)C(=O)N[C@@H](CC(=O)O)C(=O)N[C@H](C(=O)N[C@@H](CCSC)C(=O)N[C@@H](CO)C(=O)N[C@@H](CCCNC(=N)N)C(=O)N[C@@H](CCC(N)=O)C(=O)N[C@@H](CCC(N)=O)C(=O)NCC(=O)N[C@@H](CCC(=O)O)C(=O)N[C@@H](CO)C(=O)N[C@@H](CC(N)=O)C(=O)N[C@@H](CCC(N)=O)C(=O)N[C@@H](CCC(=O)O)C(=O)N[C@@H](CCCNC(=N)N)C(=O)NCC(=O)N[C@@H](C)C(=O)N[C@@H](CCCNC(=N)N)C(=O)N[C@@H](C)C(=O)N[C@@H](CCCNC(=N)N)C(=O)N[C@@H](CC(C)C)C(N)=O)[C@@H](C)CC)C(C)C)[C@@H](C)O [synthetic PGRF(1-44)-amide, PGRF(1-44)-amide]
GH-releasing activity when injected in laboratory animals (rats) ([1]; compared with PGRF(1-40) in Table II): shows the same type of GH-releasing activity as PGRF(1-40)
potency compared with native PGRF(1-44) (further testing) [2]: substantially the same potency as native PGRF(1-44)
